Assay results: patent publication US20240148821A1, “PHARMACEUTICAL USE OF CYCLIC PEPTIDE COMPOUND” (CHUGAI SEIYAKU KABUSHIKI KAISHA, priority 2021, published 2024)
pIC50: −log10 of the molar value. Numbered stars: 1 amine (or outer) side, 2 acyl side, 3 side chain; on linkers, the order of the positions; unused ones are H or OH. Bridge positions count the residues as written; N and C are the ends. Square brackets hold non-standard residues; d marks the D form. Peptide text beside a SMILES is read from it. * marks the point of attachment. hPhe(3-Cl-4-CF3) = N[C@@H](CCc1ccc(C(F)(F)F)c(Cl)c1)C(=O)O; NMePhe(4-CF3) = CN[C@@H](Cc1ccc(C(F)(F)F)cc1)C(=O)O; NMeAla(4-thiazolyl) = CN[C@@H](Cc1cscn1)C(=O)O; X20 = Cc1cncc(C[C@@H](C(=O)[*:2])N(C)[*:1])c1; NMePhe(4-Cl) = CN[C@@H](Cc1ccc(Cl)cc1)C(=O)O; NMePhe(3-F) = CN[C@@H](Cc1cccc(F)c1)C(=O)O; Phe(3-I) = N[C@@H](Cc1cccc(I)c1)C(=O)O; NMeAla(cPr) = CN[C@@H](CC1CC1)C(=O)O; NMeCha = CN[C@@H](CC1CCCCC1)C(=O)O; NMeChg = CN[C@H](C(=O)O)C1CCCCC1; NMeD = CN[C@@H](CC(=O)O)C(=O)O; NMeL = CN[C@@H](CC(C)C)C(=O)O; NMeV = CN[C@H](C(=O)O)C(C)C; d(β3hA) = C[C@@H](N)CC(=O)O; NMeA = CN[C@@H](C)C(=O)O; NMeAib = CNC(C)(C)C(=O)O; Nle = CCCC[C@H](N)C(=O)O; Piperidide = C1CCN(*)CC1; Pyrrolidide = C1CCN(*)C1; Ac5c = NC1(C(=O)O)CCCC1; Aze = O=C(O)[C@@H]1CCN1; Nva = CCC[C@H](N)C(=O)O; NEtG = CCNCC(=O)O; Sar = CNCC(=O)O

The compounds below were run on Human pancreatic cancer cell line AsPC-1 (G12D mutation Kras) (assay: AsPC-1 cell growth inhibition (AsPC-1 CGI)). Details: read-out: AsPC-1 cell growth inhibition, 50% growth inhibitory concentration (IC50 value); 96 hours, CellTiter-Glo, values classified in ranges.
Format: cell-based
Protocol: Test compounds were serially dilated with dimethyl sulfoxide, and 200 nL was then dispensed to a U-bottom 96-well plate using Labcyte Echo. […] The cell suspension was dispensed to a. plate containing a test compound at 100 μL per well and incubated at 37° C. in a 5% carbon dioxide gas incubator. 96 hours later, 80 μL of CellTiter-Glo (Promega) was added to each well and fluorescence was measured.

**Q.** With `CC[C@H](C)[C@@H]1NC(=O)[C@H](CC(C)C)N(C)C(=O)C[C@@H](C(=O)N2CCCCC2)N(C)C(=O)[C@H](C2CCCCC2)N(C)C(=O)C2(CCCC2)NC(=O)[C@H](Cc2cncc(C)c2)N(C)C(=O)[C@H](CCc2ccc(C(F)(F)F)c(Cl)c2)NC(=O)CN(C)C(=O)[C@H](CC2CCCCC2)N(C)C(=O)[C@@H]2CCN2C(=O)CN(C)C1=O` [Compound 477] ([NMeL]I[Sar][Aze][NMeCha][Sar][hPhe(3-Cl-4-CF3)][X20][Ac5c][NMeChg][NMeD]-Piperidide; lactam N-11) as the compound, how does the pIC50 read?
**A.** < 6.30

**Q.** With `CCCC[C@@H]1NC(=O)[C@H](Cc2cccc(I)c2)NC(=O)CN(C)C(=O)[C@H](Cc2ccc(Cl)cc2)N(C)C(=O)CN(C)C(=O)CN(C)C(=O)[C@H]([C@@H](C)CC)NC(=O)[C@H](CC(C)C)N(C)C(=O)C[C@@H](C(=O)N2CCCCC2)N(C)C(=O)[C@H](CC(C)C)NC(=O)[C@H](Cc2cccc(F)c2)N(C)C1=O` [Compound 483] ([NMeL]I[Sar][Sar][NMePhe(4-Cl)][Sar][Phe(3-I)][Nle][NMePhe(3-F)]L[NMeD]-Piperidide; lactam N-11) as the compound, how does the pIC50 read?
**A.** < 6.30

**Q.** With `CCC[C@@H]1NC(=O)[C@H](CC(C)C)N(C)C(=O)C[C@@H](C(=O)N2CCCCC2)N(C)C(=O)[C@H](C2CCCCC2)N(C)C(=O)C2(CCCC2)NC(=O)[C@@H]2CCCN2C(=O)[C@H](CCc2ccc(C(F)(F)F)c(Cl)c2)NC(=O)CN(C)C(=O)[C@H](CC2CCCCC2)N(C)C(=O)CN(C)C(=O)CN(C)C1=O` [Compound 495] ([NMeL][Nva][Sar][Sar][NMeCha][Sar][hPhe(3-Cl-4-CF3)]P[Ac5c][NMeChg][NMeD]-Piperidide; lactam N-11) as the compound, how does the pIC50 read?
**A.** < 6.30

**Q.** How did the pIC50 turn out when `CCCC[C@@H]1NC(=O)[C@H](Cc2cccc(I)c2)NC(=O)CN(C)C(=O)[C@H](Cc2ccc(Cl)cc2)N(C)C(=O)CN(C)C(=O)CN(C)C(=O)[C@H]([C@@H](C)CC)NC(=O)[C@H](CC(C)C)N(C)C(=O)C[C@@H](C(=O)N2CCCCC2)N(C)C(=O)[C@H](CC(C)C)NC(=O)[C@H](Cc2ccc(C(F)(F)F)cc2)N(C)C1=O` [Compound 498] ([NMeL]I[Sar][Sar][NMePhe(4-Cl)][Sar][Phe(3-I)][Nle][NMePhe(4-CF3)]L[NMeD]-Piperidide; lactam N-11) was run?
**A.** < 6.30

**Q.** `CC[C@H](C)[C@@H]1NC(=O)[C@H](CC(C)C)N(C)C(=O)C[C@@H](C(=O)N2CCCCC2)N(C)C(=O)[C@H](C2CCCCC2)N(C)C(=O)C2(CCCC2)NC(=O)[C@H](Cc2cscn2)N(C)C(=O)[C@H](CCc2ccc(C(F)(F)F)c(Cl)c2)NC(=O)CN(C)C(=O)[C@H](CC2CCCCC2)N(C)C(=O)CN(C)C(=O)CN(C)C1=O` [Compound 500] ([NMeL]I[Sar][Sar][NMeCha][Sar][hPhe(3-Cl-4-CF3)][NMeAla(4-thiazolyl)][Ac5c][NMeChg][NMeD]-Piperidide; lactam N-11) was tested. Which pIC50 did it give?
**A.** < 6.30

**Q.** `CC[C@H](C)[C@@H]1NC(=O)[C@H](CC(C)C)N(C)C(=O)C[C@@H](C)NC(=O)[C@H](C(C)C)N(C)C(=O)C2(CCCC2)NC(=O)[C@@H]2CCCN2C(=O)[C@H](CCc2ccc(C(F)(F)F)c(Cl)c2)NC(=O)CN(C)C(=O)[C@H](CC2CCCCC2)N(C)C(=O)CN(CC)C(=O)CN(C)C1=O` [Compound 504] (cyclo([Ac5c][NMeV][d(β3hA)][NMeL]I[Sar][NEtG][NMeCha][Sar][hPhe(3-Cl-4-CF3)]P)) was tested. Which pIC50 did it give?
**A.** < 6.30

**Q.** How did the pIC50 turn out when `CC[C@H](C)[C@@H]1NC(=O)[C@H](C)N(C)C(=O)C[C@@H](C(=O)N2CCCCC2)N(C)C(=O)[C@H](C(C)C)N(C)C(=O)C(C)(C)N(C)C(=O)[C@@H]2CCCN2C(=O)[C@H](CCc2ccc(C(F)(F)F)c(Cl)c2)NC(=O)CN(C)C(=O)[C@H](CC2CCCCC2)N(C)C(=O)CN(C)C(=O)CN(C)C1=O` [Compound 507] ([NMeA]I[Sar][Sar][NMeCha][Sar][hPhe(3-Cl-4-CF3)]P[NMeAib][NMeV][NMeD]-Piperidide; lactam N-11) was run?
**A.** < 6.30

**Q.** How did the pIC50 turn out when `CC[C@H](C)[C@@H]1NC(=O)[C@H](CC(C)C)N(C)C(=O)C[C@@H](C(=O)N2CCCC2)NC(=O)[C@H](C(C)C)N(C)C(=O)C2(CCCC2)NC(=O)[C@@H]2CCCN2C(=O)[C@H](CCc2ccc(C(F)(F)F)c(Cl)c2)NC(=O)CN(C)C(=O)[C@H](CC2CCCCC2)N(C)C(=O)CN(C)C(=O)CN(C)C1=O` [Compound 508] ([NMeL]I[Sar][Sar][NMeCha][Sar][hPhe(3-Cl-4-CF3)]P[Ac5c][NMeV]D-Pyrrolidide; lactam N-11) was run?
**A.** < 6.30

**Q.** With `CC[C@H](C)[C@@H]1NC(=O)[C@H](CC(C)C)N(C)C(=O)C[C@@H](C)NC(=O)[C@H](C(C)C)N(C)C(=O)C2(CCCC2)NC(=O)[C@@H]2CCCN2C(=O)[C@H](CCc2ccc(C(F)(F)F)c(Cl)c2)NC(=O)CN(C)C(=O)[C@H](CC2CC2)N(C)C(=O)CN(C)C(=O)CN(C)C1=O` [Compound 511] (cyclo([Ac5c][NMeV][d(β3hA)][NMeL]I[Sar][Sar][NMeAla(cPr)][Sar][hPhe(3-Cl-4-CF3)]P)) as the compound, how does the pIC50 read?
**A.** < 6.30
